Holding throughout (format): physicochemical
Data set [1] can be described thus: Acid value (Cosmetics Raw Material Standard 18). To be noted: ester compound. The source says:
Acid value: determined in accordance with “Cosmetics Raw Material Standard 18, Method for the Determination of an Acid Value”.

Data set [2] in a line: Hydroxyl value (Cosmetics Raw Material Standard 24). To be noted: ester compound; unit assumed. The source says: Hydroxyl value: determined in accordance with “Cosmetics Raw Material Standard 24, Method for the Determination of a Hydroxyl Value”.
A short description of data set [3]: Viscosity by Brookfield Viscometer DV-II+. The note with it: Spindle No. 2, 12 rpm. As to the method: Viscosity: determined by Brookfield Viscometer DV-II+ (Spindle No. 2, 12 rpm, 25 degrees C.).
A short description of data set [4]: Compatibility of the ester compound with oil agents. The arrangement: key to Compatibility: G: the compound exhibits the compatibility with both the hydrocarbon oil and silicone oil; M: the compound exhibits the compatibility with either of the two; B: the compound exhibits the compatibility with neither of the two. To be noted: for Compatibility: 90% by mass ester compound in 10% by mass oil agent, appearance after one week at 25 degrees C.; for compatibility with the oil agents (in words): ester compound. As to the method:
Compatibility: The oil agents used were as follows:
Hydrocarbon oil: Squalane (OLIVE SQUALANE from Kokyu Alcohol Kogyo Co., Ltd.)
Silicone oil: Cyclomethicone (DOWCORNING TORAY SH 245 FLUID, trademark, from Dow Corning Toray Co., Ltd.)
In 10% by mass of each oil agent indicated above were dissolved 90% by mass of the ester compound obtained from Preparation Examples and Comparative Preparation Examples in a hot water bath at a temperature of 80 to 90 degrees C. for 60 minutes under stirring. Next, the mixture obtained was cooled to 50 degrees C. under stirring and then placed in a temperature-controlled room at 25 degrees C. The appearance after one week was evaluated visually. The indication of the evaluation results is as follows.

In the case of `CCCCC(CC)C(=O)OCC(COC(=O)C(CC)CCCC)(COC(=O)C(CC)CCCC)COC(=O)C(CC)CCCC` (stereo not shown) [Com. Prep. Ex. 2, pentaerythrityl tetraethylhexanoate], the Acid value in data set [1] amounted to 0.02. The same compound gave a Hydroxyl value in data set [2] of 1.25 mg KOH/g. Further, in data set [3], the “Viscosity in mPa · s at 25° C.” value worked out at 109 mPa · s. In data set [4], the Compatibility result is reported as “M” and the “compatibility with the oil agents (in words)” value is given as “not good”.

“pentaerythrityl tetraisostearate [Com. Prep. Ex. 3]” showed an Acid value in data set [1] of 0.38. The Hydroxyl value in data set [2] amounted to 0.59 mg KOH/g. In addition, in data set [3], the “Viscosity in mPa · s at 25° C.” value is listed as 290 mPa · s. In data set [4], the Compatibility entry is recorded as “M” and the “compatibility with the oil agents (in words)” value is “not good”.

The values above are taken from patent US8367084B2, “Oily base for a cosmetic and cosmetic comprising the same” (Kokyu Alcohol Kogyo Co., Ltd., priority 2009, dated 2013).
